The text below walks through data of US20180214388A1, “COMPOSITION AND METHOD FOR REDUCING SCARRING” (priority 2015, published 2018).

Data set [1] deals with cytochrome P450 oxidase enzyme system. The settings on record: metabolized in the liver; cited from earlier work.
The test system of data set [2] is subjects with existing scars, incision after surgical removal. Description: Caffeine cream for scar reduction or prevention after surgical excision (Example 3). The format is in vivo, human. The settings on record: topical cream; both subjects felt caffeine effects. An excerpt: Two subjects with existing scars were chosen for the study.
Subject #1 presented with a skin growth on the left mid cheek.
Subject #2 presented with an older mid-forehead scar. […] The subject underwent a third revision of the scar.

The subject of a further data set is wound. In words: Wound healing with application of resveratrol. The class given is in vivo.
For data set [3] the following is noted: cited from earlier work.

For `Cn1c(=O)[nH]c2ncn(C)c2c1=O` [Paraxanthine, 1,7-dimethyl-3H-purine-2,6-dione], the “share of caffeine metabolites” value in data set [1] is given as 84%.

As to `Cn1c(=O)c2c(ncn2C)n(C)c1=O` [caffeine, 1,3,7-trimethylpurine-2,6-dione], in data set [2], the “uptake from application site and distribution” value was “rapidly taken from the application site and distributed throughout the body”.

As to `Oc1ccc(/C=C/c2cc(O)cc(O)c2)cc1` [resveratrol, trans-3,4′,5-trihydroxystilbene], in the data set on wound, the resulting scar is “attenuated scar” and the time to epithelialization was at most 24 h. The solubility in water result in data set [3] is listed as “very low solubility”.

Regarding `Cn1c(=O)c2[nH]cnc2n(C)c1=O` [theophylline, 1,3-dimethyl-7H-purine-2,6-dione, reference compound], the “share of caffeine metabolites” value in data set [1] was 4%.
